Assay results taken from patent US10684294B2, “Diarylether-based fluorogenic probes for detection of hypochlorous acid or hydroxyl radical” (THE UNIVERSITY OF HONG KONG, priority 2015, dated 2020).

What was measured:
[1] = Reactivity of probe toward different ROS, RNS, FeCl2, FeCl3 and TCBQ (hydroxyl radical selectivity); details: 5 μM probe, •OH, HOCl, ONOO−, FeCl2, FeCl3, TCBQ 5 μM, other ROS/RNS 50 μM, especially TCBQ/H2O2 system
Procedure: The reactivity of compound HYY166 is tested toward different reactive oxygen species (ROS), reactive nitrogen species (RNS), FeCl2, FeCl3 and TCBQ. Specifically, the 5 μM solution of compound HYY166 is treated with various ROS and RNS. The concentration of highly reactive oxygen species (hydroxyl radical (^●OH), hypochlorous acid (HOCl), and peroxynitrite (ONOO^−)), FeCl2, FeCl3 and TCBQ is 5 μM. The concentration of ^1O2, O2^●−, ^●NO, ROO^●, TBHP and H2O2 is 50 μM.
The reactivity of compound HKOH-1 is compared toward different reactive oxygen species (ROS), reactive nitrogen species (RNS), FeCl2, FeCl3 and TCBQ. Specifically, the 5 μM solution of compound HKOH-1 is treated with various ROS and RNS. The concentration of highly reactive oxygen species (hydroxyl radical (^●OH), hypochlorous acid (HOCl), and peroxynitrite (ONOO^−)), FeCl2, FeCl3 and TCBQ is 5 μM. The concentration of ^1O2, O2^●−, ^●NO, ROO^●, TBHP and H2O2 is 50 μM.

[2] = Fluorescence response of probe to hydroxyl radical source (Fenton reagent; TCBQ/H2O2); details: 5 μM probe, 0.1 M phosphate buffer pH 7.4, Fenton reagent or TCBQ/H2O2 (H2O2 10:1)
Procedure: Specifically, compound HYY166 is dissolved in 0.1 M phosphate buffer at pH 7.4 to form a 5 μM solution, with excitation and emission spectra at 490 nm and 520 nm, respectively. The 5 μM solution of compound HYY166 is treated with hydroxyl radical generated from different hydroxyl radical source: (1) Fenton reagent ([H2O2]:[FeCl2]=10:1); (2) Tetrachloro-1,4-benzoquinone (TCBQ)/H2O2 ([H2O2]:[TCBQ]=10:1) system.
Specifically, compound HKOH-1 is dissolved in 0.1 M phosphate buffer at pH 7.4 to form a 5 μM solution, with excitation and emission spectra at 504 nm and 525 nm, respectively. The 5 μM solution of compound HKOH-1 is treated with hydroxyl radical generated from different hydroxyl radical source: (1) Fenton reagent ([H2O2]:[FeCl2]=10:1); (2) Tetrachloro-1,4-benzoquinone (TCBQ)/H2O2 ([H2O2]:[TCBQ]=10:1) system.

[3] = Fluorescence response of probe to increasing hypochlorous acid concentration; details: 10 μM probe
Procedure: Specifically, Compound HKOCl-3 is dissolved in 0.1 M phosphate buffer at pH 7.4 to form a 10 μM solution, with excitation and emission spectra at 490 nm and 527 nm, respectively. The 10 μM solution of compound HKOCl-3 is treated with hypochlorous acid at various concentrations.
Specifically, compound HJ-3-279 is dissolved in 0.1 M phosphate buffer at pH 7.4 to form a 10 μM solution, with excitation and emission spectra at 490 nm and 527 nm, respectively. The 10 μM solution of Compound HJ-3-279 is treated with hypochlorous acid at various concentrations.
Specifically, Compound BXY2142 is dissolved in 0.1 M phosphate buffer at pH 7.4 to form a 10 μM solution, with excitation and emission spectra at 530 nm and 557 nm, respectively. The 10 μM solution of Compound BXY2142 is treated with hypochlorous acid at various concentrations.
Specifically, compound HJ-3-259 is dissolved in 0.1 M phosphate buffer at pH 7.4 to form a 10 μM solution, with excitation and emission spectra at 562 nm and 585 nm, respectively. The 10 μM solution of Compound HJ-3-259 is treated with hypochlorous acid at various concentrations.

[4] = Reactivity of probe toward different ROS and RNS (HOCl selectivity); details: ONOO− 10 μM
Procedure: The reactivity of compound HKOCl-3 is compared toward different reactive oxygen species (ROS) and reactive nitrogen species (RNS). Specifically, the 10 μM solution of compound HKOCl-3 is treated with various ROS and RNS. The concentration of highly reactive oxygen species (hydroxyl radical (^●OH), hypochlorous acid (HOCl), and peroxynitrite (ONOO^−)) is 10 μM. The concentration of ^1O2, O2^●−, ^●NO, ROO^●, TBHP and H2O2 is 100 μM.
The reactivity of compound HJ-3-279 is compared toward different reactive oxygen species (ROS) and reactive nitrogen species (RNS). Specifically, the 10 μM solution of compound HJ-3-279 is treated with various ROS and RNS. The concentration of highly reactive oxygen species (hydroxyl radical (^●OH), hypochlorous acid (HOCl), and peroxynitrite (ONOO^−)) is 10 μM. The concentration of ^1O2, O2^●−, ^●NO, ROO^●, TBHP and H2O2 is 100 μM.
The reactivity of compound BXY2142 is compared toward different reactive oxygen species (ROS) and reactive nitrogen species (RNS). Specifically, the 10 μM solution of compound BXY2142 is treated with various ROS and RNS. The concentration of highly reactive oxygen species (hydroxyl radical (^●OH), hypochlorous acid (HOCl), and peroxynitrite (ONOO^−)) is 10 μM. The concentration of […], ^●NO, ROO^●, TBHP and H2O2 is 100 μM.
The reactivity of compound HJ-3-259 is compared with different reactive oxygen species (ROS) and reactive nitrogen species (RNS). Specifically, the 10 μM solution of compound HJ-3-259 is treated with various ROS and RNS. The concentration of highly reactive oxygen species (hydroxyl radical (^●OH), hypochlorous acid (HOCl), and peroxynitrite (ONOO^−)) is 10 μM. The concentration of ^1O2, O2^●−, ^●NO, ROO^●, TBHP and H2O2 is 100 μM.

[5] = excitation 490 nm, emission 520 nm
[6] = 0.1 M phosphate buffer pH 7.4, excitation 490 nm, emission 527 nm
[7] = 10 μM probe, •OH, 1O2, O2•−, •NO, ROO•, TBHP, H2O2 100 μM, excitation 490 nm, emission 527 nm
[8] = excitation 504 nm, emission 525 nm

O=C1OC2(c3ccc(O)cc3Oc3cc(Oc4cc(I)c(O)c(I)c4)ccc32)c2ccccc21 (stereo not shown) [HYY166]
increase in fluorescence intensity with hydroxyl radical versus other ROS and RNS [1, 5]: much higher increase
fluorescence intensity on treatment with hydroxyl radical source [2, 5]: increases with increasing concentration of hydroxyl radical source

O=C1OC2(c3ccc(O)cc3Oc3cc(Oc4cc(Cl)c(O)c(Cl)c4)ccc32)c2ccccc21 (stereo not shown) [HKOCl-3]
fluorescence intensity on treatment with hypochlorous acid at various concentrations [3, 6]: increases with increasing concentration of hypochlorous acid
increase in fluorescence intensity with hypochlorous acid versus other ROS and RNS [4, 7]: much higher increase
increase in fluorescence intensity with hypochlorous acid versus other ROS and RNS ([4]; 10 μM solution of BXY2142, •OH, other ROS/RNS 100 μM, excitation 530 nm, emission 557 nm): much higher increase

O=C1OC2(c3cc(Cl)c(O)cc3Oc3cc(Oc4cc(I)c(O)c(I)c4)c(Cl)cc32)c2ccccc21 (stereo not shown) [HKOH-1]
increase in fluorescence intensity with hydroxyl radical versus other ROS and RNS [1, 8]: much higher increase
fluorescence intensity on treatment with hydroxyl radical source [2, 8]: increases with increasing concentration of hydroxyl radical source

O=C1OC2(c3cc(Cl)c(O)cc3Oc3cc(Oc4cc(Cl)c(O)c(Cl)c4)c(Cl)cc32)c2ccccc21 (stereo not shown) [HJ-3-279]
fluorescence intensity on treatment with hypochlorous acid at various concentrations [3, 6]: increases with increasing concentration of hypochlorous acid
increase in fluorescence intensity with hypochlorous acid versus other ROS and RNS [4, 7]: much higher increase

CCOC(=O)CCCN1c2cc3c(cc2C(C)CC1(C)C)C1(OC(=O)c2ccccc21)c1ccc(Oc2cc(Cl)c(O)c(Cl)c2)cc1O3 (stereo not shown) [BXY2142]
fluorescence intensity on treatment with hypochlorous acid at various concentrations ([3]; 0.1 M phosphate buffer pH 7.4, excitation 530 nm, emission 557 nm): increases with increasing concentration of hypochlorous acid
